Key:
[1] = tested on: Staphylococcus hominis DMS 20328; assay: MIC, microtitre dilution test (growth by optical density at 620 nm); type: cell-based; settings: Table 2, Staphylococcus hominis DMS 20328
Procedure: (§1) Casein/soybean flour peptone bouillon for the preparation of pre-cultures of the test bacteria and yeast.
(§2) The test substances are predissolved in dimethyl sulfoxide (DMSO) and tested in a dilution series of 1:2.
(§3) Bacteria and yeast are cultured overnight in CASO bouillon, the mould is cultured overnight on mycological slant agar, and washed off with 10 ml of 0.85% sodium chloride solution (+0.1% TritonX-100).
(§4) All the test organisms are adjusted to an organism count of 1-5×10^6 CFU/ml using 0.85% sodium chloride solution.
(§5) The test substances are pre-pipetted into microtitre plates in an amount of 8 μl per well.
(§6) Pre-diluted organism suspensions are diluted 1:100 in CASO bouillon (bacteria and yeast) or Sabouraud 2% glucose bouillon (mould) and are added in an amount of 192 μl per well to the test substances.
(§7) The test batches are incubated for 48 hours at 37° C. (bacteria and yeast) or for 5 days at 28° C. (mould).
(§8) After incubation, the growth is evaluated by reference to the turbidity of the test batches (optical density) at 620 nm in a microplate reader.
(§9) The minimum inhibitory concentration (MIC value) is the concentration of substance at which (compared with the growth of the control) an appreciable inhibition of growth (≦20% growth) of the test organisms is ascertained.
(§10) One microtitre plate is used for each test organism and substance concentration. All the substances are tested in duplicate.

[2] = tested on: Escherichia coli NCTC 8196; assay: as above; type: cell-based; settings: Table 2, Escherichia coli
Procedure: as §1, §2, §3, §4, §5, §6, §7, §8, §9, §10

SMILES | MIC [ppm] S. hominis [1] [ppm] | MIC [ppm] E. coli [2] [ppm] | MIC ([1]; DMS20328, read-out: MIC [ppm] S. hominis) [µg/mL] | MIC ([2]; NCTC8196, read-out: MIC [ppm] E. coli) [µg/mL]
CC(C)(C)C1CCC2c3c([nH]c4ccccc34)C3C(=O)N(c4ccccc4)C(=O)C3C2C1 (stereo not shown) [Compound 13] | >120 | >120 |  | 
CCCN1CCC2c3c([nH]c4ccccc34)C3C(=O)N(c4ccccc4)C(=O)C3C2C1 (stereo not shown) [Compound 15] | >120 | >120 |  | 
CC(C)(C)C1CCC2c3c([nH]c4ccc(Br)cc34)C3C(=O)N(c4ccccc4)C(=O)C3C2C1 (stereo not shown) [Compound 19] | >120 | >120 |  | 
Cn1c2c(c3ccccc31)C1CCC(C(C)(C)C)CC1C1C(=O)N(c3ccccc3)C(=O)C21 (stereo not shown) [Compound 22] | >120 | >120 |  | 
Cn1c2c(c3ccccc31)C1CC(C)(C)NC(C)(C)C1C1C(=O)N(c3ccccc3)C(=O)C21 (stereo not shown) [Compound 24] | >120 | >120 |  | 
CC(C)(C)C1CCC2c3c([nH]c4ccccc34)C3C(=O)NC(=O)C3C2C1 (stereo not shown) [Compound 26] | 15 | >120 |  | 
CC1(C)CC2c3c([nH]c4ccccc34)C3C(=O)NC(=O)C3C2C(C)(C)N1 (stereo not shown) [Compound 28] | >120 | >120 |  | 
CC(C)(C)C1CCC2c3c([nH]c4ccc(Br)cc34)C3C(=O)NC(=O)C3C2C1 (stereo not shown) [Compound 31] | 15 | >120 |  | 
O=C1NC(=O)C2C1c1[nH]c3ccc(Br)cc3c1C1CCCCCC12 (stereo not shown) [Compound 32] | 3.75 | >120 |  | 
CCCN1CCC2c3c([nH]c4ccc(Br)cc34)C3C(=O)NC(=O)C3C2C1 (stereo not shown) [Compound 33] | 30 | 60 |  | 
Cn1c2c(c3ccccc31)C1CCC(C(C)(C)C)CC1C1C(=O)NC(=O)C21 (stereo not shown) [Compound 36] | >120 | >120 |  | 
CCN1C(=O)C2c3[nH]c4ccccc4c3C3CCC(C(C)(C)C)CC3C2C1=O (stereo not shown) [Compound 39] | >120 | >120 |  | 
CCCN1CCC2c3c([nH]c4ccccc34)C3C(=O)N(CC)C(=O)C3C2C1 (stereo not shown) [Compound 41] | >120 | >120 |  | 
CCN1C(=O)C2c3[nH]c4ccc(Br)cc4c3C3CCC(C(C)(C)C)CC3C2C1=O (stereo not shown) [Compound 44] | >120 | >120 |  | 
CCCN1CCC2c3c([nH]c4ccc(Br)cc34)C3C(=O)N(CC)C(=O)C3C2C1 (stereo not shown) [Compound 46] | 120 | 120 |  | 
CCN1C(=O)C2c3c(c4ccccc4n3C)C3CCC(C(C)(C)C)CC3C2C1=O (stereo not shown) [Compound 49] | >120 | >120 |  | 
CCOC(=O)N1CCC2c3c([nH]c4ccccc34)C3C(=O)N(c4ccccc4)C(=O)C3C2C1 (stereo not shown) [Compound 52] | >120 | >120 |  | 
CCOC(=O)N1CCC2c3c([nH]c4ccccc34)C3C(=O)NC(=O)C3C2C1 (stereo not shown) [Compound 54] | >120 | >120 |  | 
CC(C)N1CCC2c3c([nH]c4ccccc34)C3C(=O)NC(=O)C3C2C1 (stereo not shown) [Compound 55] | >120 | >120 |  | 
CC1CCC2C(C1)c1c([nH]c3ccccc13)C1C(=O)NC(=O)C12 (stereo not shown) [Compound 56] | 30 | >120 |  | 
CCCCCCC1CCC2C3C(=O)NC(=O)C3c3[nH]c4ccccc4c3C12 (stereo not shown) [Compound 57] | >120 | >120 |  | 
O=C1NC(=O)C2C1c1[nH]c3ccccc3c1C1CCN(Cc3ccccc3)CC12 (stereo not shown) [Compound 60] | 120 | >120 |  | 
CC1(C)CC2c3c([nH]c4ccccc34)C3C(=O)NC(=O)C3C2C(C)(C)C1 (stereo not shown) [Compound 63] | 7.5 | >120 |  | 
CCOC(=O)N1CCC2c3c([nH]c4ccc(Br)cc34)C3C(=O)NC(=O)C3C2C1 (stereo not shown) [Compound 68] | >120 | >120 |  | 
O=C1NC(=O)C2C1c1[nH]c3ccc(Br)cc3c1C1CCCCCCC12 (stereo not shown) [Compound 73] | 60 | >120 |  | 
CCc1cccc2c3c([nH]c12)C1C(=O)NC(=O)C1C1CCCCC31 (stereo not shown) [Compound 74] | 60 | >120 |  | 
CCc1cccc2c3c([nH]c12)C1C(=O)NC(=O)C1C1CCCC31 (stereo not shown) [Compound 75] | 30 | >120 |  | 

SMILES | MIC [ppm] S. hominis [1] [ppm] | MIC [ppm] E. coli [2] [ppm] | MIC ([1]; DMS20328, read-out: MIC [ppm] S. hominis) [µg/mL] | MIC ([2]; NCTC8196, read-out: MIC [ppm] E. coli) [µg/mL]
CCc1cccc2c3c([nH]c12)C1C(=O)NC(=O)C1C1CCCCCC31 (stereo not shown) [Compound 77] | 15 | >120 |  | 
CCCCCCC1CCC2C3C(=O)NC(=O)C3c3[nH]c4c(CC)cccc4c3C12 (stereo not shown) [Compound 83] | >120 | >120 |  | 
CCc1cccc2c3c([nH]c12)C1C(=O)NC(=O)C1C1CCCCCCC31 (stereo not shown) [Compound 89] | 7.5 | >120 |  | 
CCc1cccc2c3c([nH]c12)C1C(=O)NC(=O)C1C1C3CC(C)(C)CC1(C)C (stereo not shown) [Compound 90] | >120 | >120 |  | 
COc1ccc2[nH]c3c(c2c1)C1CCCCC1C1C(=O)NC(=O)C31 (stereo not shown) [Compound 91] | >120 | >120 |  | 
COc1ccc2[nH]c3c(c2c1)C1CCCC1C1C(=O)NC(=O)C31 (stereo not shown) [Compound 92] | >120 | >120 |  | 
COc1ccc2[nH]c3c(c2c1)C1CCCCCC1C1C(=O)NC(=O)C31 (stereo not shown) [Compound 94] | >120 | >120 |  | 
CCCC1CCC2c3c([nH]c4ccc(OC)cc34)C3C(=O)NC(=O)C3C2C1 (stereo not shown) [Compound 101] | >120 | >120 |  | 
CCC(C)(C)C1CCC2c3c([nH]c4ccc(OC)cc34)C3C(=O)NC(=O)C3C2C1 (stereo not shown) [Compound 102] | 60 | >120 |  | 
CCN1CCC2c3c([nH]c4ccc(OC)cc34)C3C(=O)NC(=O)C3C2C1 (stereo not shown) [Compound 103] | >120 | >120 |  | 
COc1ccc2[nH]c3c(c2c1)C1CCN(Cc2ccccc2)CC1C1C(=O)NC(=O)C31 (stereo not shown) [Compound 104] | >120 | >120 |  | 
COc1ccc2[nH]c3c(c2c1)C1CCN(C)CC1C1C(=O)NC(=O)C31 (stereo not shown) [Compound 105] | >120 | >120 |  | 
COc1ccc2[nH]c3c(c2c1)C1CCCCCCC1C1C(=O)NC(=O)C31 (stereo not shown) [Compound 107] | 120 | >120 |  | 
COc1ccc2[nH]c3c(c2c1)C1CC(C)(C)CC(C)(C)C1C1C(=O)NC(=O)C31 (stereo not shown) [Compound 108] | >120 | >120 |  | 
CN1C(=O)C2c3[nH]c4ccccc4c3C3CCC(C(C)(C)C)CC3C2C1=O (stereo not shown) [Compound 111] | 60 | >120 |  | 
CN1C(=O)C2c3[nH]c4ccccc4c3C3CC(C)(C)NC(C)(C)C3C2C1=O (stereo not shown) [Compound 113] | >120 | >120 |  | 
CCCN1CCC2c3c([nH]c4ccccc34)C3C(=O)N(C)C(=O)C3C2C1 (stereo not shown) [Compound 114] | >120 | >120 |  | 
CCOC(=O)N1CCC2c3c([nH]c4ccccc34)C3C(=O)N(C)C(=O)C3C2C1 (stereo not shown) [Compound 115] | 60 | >120 |  | 
CC(C)N1CCC2c3c([nH]c4ccccc34)C3C(=O)N(C)C(=O)C3C2C1 (stereo not shown) [Compound 116] | 120 | >120 |  | 
CC1CCC2C(C1)c1c([nH]c3ccccc13)C1C(=O)N(C)C(=O)C12 (stereo not shown) [Compound 117] |  |  | > 120 | > 120
CCCC1CCC2c3c([nH]c4ccccc34)C3C(=O)N(C)C(=O)C3C2C1 (stereo not shown) [Compound 119] | >120 | >120 |  | 
CCC(C)(C)C1CCC2c3c([nH]c4ccccc34)C3C(=O)N(C)C(=O)C3C2C1 (stereo not shown) [Compound 120] | 30 | >120 |  | 
CCN1CCC2c3c([nH]c4ccccc34)C3C(=O)N(C)C(=O)C3C2C1 (stereo not shown) [Compound 121] | >120 | >120 |  | 
CN1C(=O)C2c3[nH]c4ccccc4c3C3CCN(Cc4ccccc4)CC3C2C1=O (stereo not shown) [Compound 122] | >120 | >120 |  | 
CN1CCC2c3c([nH]c4ccccc34)C3C(=O)N(C)C(=O)C3C2C1 (stereo not shown) [Compound 123] | >120 | 120 |  | 
CN1C(=O)C2c3[nH]c4ccccc4c3C3CCCCCCC3C2C1=O (stereo not shown) [Compound 125] | >120 | >120 |  | 
